This note sets out measurements from PubChem BioAssay (NCI).

Where “and” joins values, the source holds several entries; their conditions need not be identical. Equal values may be shown once.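 In this assay, cells in 96-well plates receive the compound at five concentrations for 48 hours. Endpoints are linearly interpolated between the surrounding concentrations. GI50: concentration for 50% inhibition of growth. TGI denotes the concentration required for complete inhibition of growth.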

Test systems include U251 CNS; UACC-257 melanoma; K-562 leukemia; SN12C renal; CCRF-CEM leukemia; HCT-116 colon; NCI-H23 lung; T-47D breast; UACC-62 melanoma; OVCAR-4 ovarian.
Holding throughout (test): growth of human tumour cells (NCI), 48 h

Take `O=C(NCCCl)Nc1cccnc1`: the TGI with U251 CNS was > 100 µM; in the assay on UACC-257 melanoma, 72.2 µM; with K-562 leukemia, > 100 µM; in the assay with SN12C renal it was 64.7 µM; in the assay on CCRF-CEM leukemia it was > 100 µM; with HCT-116 colon, 32 µM. Further, the TGI with NCI-H23 lung was 46.2 µM; with T-47D breast, 59.5 µM; with UACC-62 melanoma, > 100 µM; in the assay with OVCAR-4 ovarian, 90.7 µM.
As for `C=CC(=O)N1C[C@@H]2CCOc3c(Cl)c(-c4c(O)cccc4F)c(F)c4ncnc(c34)N2C[C@H]1C`, the GI50 is 15 µM with U251 CNS; 13 µM with UACC-257 melanoma; 8.72 µM in the assay on K-562 leukemia; 13 µM in the assay on SN12C renal; 11.5 µM in the assay on CCRF-CEM leukemia; 11.2 µM in the assay with HCT-116 colon. Besides, the GI50 was 0.0328 µM in the assay with NCI-H23 lung, 14.9 µM in the assay on T-47D breast, 4.17 µM in the assay on UACC-62 melanoma and 9.18 µM in the assay on OVCAR-4 ovarian. Also, the TGI with U251 CNS is 36.2 µM; in the assay on UACC-257 melanoma, 30.3 µM; with K-562 leukemia, > 100 µM; in the assay on SN12C renal, 31.3 µM; in the assay with CCRF-CEM leukemia, > 100 µM; with HCT-116 colon it was 24.5 µM. Further, the TGI with NCI-H23 lung was determined as 13.1 µM; in the assay with T-47D breast it was 87.4 µM; in the assay on UACC-62 melanoma, 18.8 µM; with OVCAR-4 ovarian, 72 µM.
In the case of `O=C(c1ccc(C(F)(F)F)c(Cl)c1)N(Cc1ccc(Cl)cc1)c1ccc(-c2cc(C(F)(F)F)[nH]n2)c(O)c1`, the GI50 with U251 CNS is 0.882 µM; in the assay with UACC-257 melanoma, 1.04 µM; with K-562 leukemia, 1.05 µM; in the assay on SN12C renal it was 0.886 µM; with CCRF-CEM leukemia it was 1.11 µM; in the assay on HCT-116 colon, 0.705 µM. The GI50 was 0.91 µM in the assay on NCI-H23 lung, 0.948 µM in the assay on T-47D breast, 0.8 µM in the assay with UACC-62 melanoma and 1.08 µM in the assay on OVCAR-4 ovarian. Also, the TGI in the assay on U251 CNS was 2.25 µM; in the assay on UACC-257 melanoma, 3.57 µM; with K-562 leukemia, 5.16 µM; in the assay with SN12C renal it was 2.04 µM; in the assay on CCRF-CEM leukemia, 5.33 µM; in the assay with HCT-116 colon, 1.58 µM. For the same compound, the TGI worked out at 2.45 µM in the assay with NCI-H23 lung, 3.43 µM in the assay on T-47D breast, 1.97 µM in the assay with UACC-62 melanoma and 4.87 µM in the assay with OVCAR-4 ovarian.
Take `CC(C)(C)c1cc(NC(=O)Nc2ccc(-c3cn4c(n3)sc3cc(OCCN5CCOCC5)ccc34)cc2)no1`: the GI50 with U251 CNS is 0.941 µM and 0.511 µM and 2.72 µM; in the assay with UACC-257 melanoma, 9.01 µM and 3.43 µM and > 10 µM; in the assay with CCRF-CEM leukemia, 0.18 µM and 1.49 µM; in the assay on HCT-116 colon, 4.23 µM and 0.576 µM and 5.19 µM; with T-47D breast it was 0.0864 µM and 0.107 µM and 0.223 µM; in the assay on UACC-62 melanoma, 1.34 µM and 1.4 µM. Besides, the GI50 in the assay with OVCAR-4 ovarian is 4.61 µM and 1.38 µM and 3.38 µM. Moreover, the TGI is 12.9 µM and 5.25 µM and > 10 µM in the assay on U251 CNS; 23.5 µM and 16 µM and > 10 µM in the assay on UACC-257 melanoma; 11.9 µM and > 10 µM in the assay on K-562 leukemia; 24.9 µM and 13.2 µM and > 10 µM with SN12C renal; 18.6 µM and > 10 µM in the assay with CCRF-CEM leukemia; 19 µM and 11.1 µM and > 10 µM in the assay on HCT-116 colon. In addition, the TGI in the assay on NCI-H23 lung is 26.8 µM and 12.8 µM and > 10 µM; in the assay with UACC-62 melanoma it was 15.2 µM and 9.53 µM; in the assay with OVCAR-4 ovarian, 15.8 µM and 5.96 µM and > 10 µM.
`CC(C)(c1ccccc1)c1cc(O)c(C(C)(C)c2ccccc2)cc1O`: the GI50 with U251 CNS is 2.14 µM; with UACC-257 melanoma, 2.1 µM; in the assay with K-562 leukemia, 1.85 µM; in the assay with SN12C renal, 2.46 µM; with CCRF-CEM leukemia, 3 µM; in the assay with HCT-116 colon, 1.35 µM. The GI50 was 2.27 µM with NCI-H23 lung, 1.81 µM with T-47D breast, 1.71 µM with UACC-62 melanoma and 1.26 µM in the assay with OVCAR-4 ovarian. Moreover, the TGI was found to be 9.97 µM in the assay on U251 CNS; 10.7 µM with UACC-257 melanoma; 12.2 µM in the assay on K-562 leukemia; 11.5 µM in the assay on SN12C renal; 13.6 µM in the assay on CCRF-CEM leukemia; 3.36 µM with HCT-116 colon. The TGI in the assay on NCI-H23 lung stood at 16.2 µM; in the assay with T-47D breast, 12.7 µM; in the assay with UACC-62 melanoma it was 4.93 µM; with OVCAR-4 ovarian, 9.92 µM.
For the compound `CC(C)(C)c1cc(/C=N/NC(=O)c2ccccc2NC(=O)c2cccs2)c(O)c(C(C)(C)C)c1`, the GI50 is 0.7 µM with U251 CNS; 6.18 µM in the assay on UACC-257 melanoma; 1.1 µM with K-562 leukemia; 1.92 µM in the assay on SN12C renal; 0.336 µM with CCRF-CEM leukemia; 0.713 µM in the assay with HCT-116 colon. Moreover, the GI50 in the assay on NCI-H23 lung is 1.62 µM; in the assay with T-47D breast, 1.85 µM; in the assay with UACC-62 melanoma, 0.39 µM; with OVCAR-4 ovarian, 0.193 µM. In addition, the TGI with U251 CNS was 7.64 µM; with UACC-257 melanoma it was > 100 µM; with K-562 leukemia, 51.6 µM; in the assay with SN12C renal it was 62.8 µM; with CCRF-CEM leukemia it was 11.7 µM; in the assay on HCT-116 colon, 14.4 µM. In addition, the TGI was found to be 25.5 µM in the assay with NCI-H23 lung, 29.4 µM with T-47D breast, 14 µM in the assay on UACC-62 melanoma and 5.97 µM with OVCAR-4 ovarian.
